The values below come from the RepoRT retention time repository.

The data set in a line: RP, Thermo Scientific Hypersil GOLD, 200 × 2.1 mm, 1.9 µm, 40 °C, 0.4 mL/min, estimated dead time 1.1 min; A: water + 0.2% formic acid; B: acetonitrile; gradient (min/%B) 0/10 0.5/10 22/100 30/100 30.2/10 35/10. Conditions: stereoisomer not certain.
With `O=C1CC(c2ccc(O)cc2)Oc2cc(O)cc(O)c21` (centres undefined) [naringenin], the LC retention time is 8.88 min.

As for `CC1CCC2(C(=O)O)CCC3(C)C(=CCC4C5(C)CC(O)C(O)C(C)(CO)C5CCC43C)C2C1C` (centres undefined) [asiatic acid], the LC retention time was 12.7 min.

As for `O=C(O)c1ccc(O)c(O)c1` [protocatechuic acid], the LC retention time is 2.41 min.

As to `O=C(C=Cc1ccc(O)c(O)c1)OCCc1ccccc1` [caffeic acid phenylethyl ester], the LC retention time was 12.2 min.

`O=c1c(O)c(-c2ccc(O)cc2)oc2cc(O)cc(O)c12` [kaempferol]: the LC retention time is 9.01 min.

In the case of `O=C(C=Cc1ccc(O)c(O)c1)OC1CC(O)(C(=O)O)CC(O)C1O` (centres undefined) [chlorogenic acid], the LC retention time is 3.21 min.

On to `CC=C1C(OC2OC(CO)C(O)C(O)C2O)OC=C(C(=O)OC)C1CC(=O)OCCc1ccc(O)c(O)c1` (centres undefined) [oleuropein], for which the LC retention time is 7.05 min.

For the compound `COc1cc(CC(CO)C(CO)Cc2ccc(O)c(OC)c2)ccc1O` (centres undefined) [secoisolariciresinol], the LC retention time is 6.86 min.

Regarding `O=C(CCc1ccc(O)cc1)c1c(O)cc(O)cc1OC1OC(CO)C(O)C(O)C1O` (centres undefined) [phloridzin], the LC retention time was 6.77 min.

For `OCCc1ccc(O)c(O)c1` [hydroxytyrosol], the LC retention time was 2.46 min.

Take `CC1OC(OC2C(Oc3cc(O)c4c(c3)OC(c3ccc(O)cc3)CC4=O)OC(CO)C(O)C2O)C(O)C(O)C1O` (centres undefined) [naringenin 7-O-neohesperidoside]: the LC retention time is 6.18 min.

On to `CC1(C(=O)O)CCC2(C)CCC3(C)C(=CC(=O)C4C5(C)CCC(O)C(C)(C)C5CCC43C)C2C1` (stereo not drawn) [18beta-glycyrrhetinic acid], for which the LC retention time is 16.6 min.

As for `CC1OC(OCC2OC(Oc3c(-c4ccc(O)cc4)oc4cc(O)cc(O)c4c3=O)C(O)C(O)C2O)C(O)C(O)C1O` (centres undefined) [kaempferol 3-rutinoside], the LC retention time was 5.64 min.

For the compound `O=c1ccc2ccc(O)cc2o1` [7-hydroxycoumarin], the LC retention time is 5.43 min.

Regarding `COc1ccc(C2CC(=O)c3c(O)cc(OC4OC(COC5OC(C)C(O)C(O)C5O)C(O)C(O)C4O)cc3O2)cc1O` (centres undefined) [hesperetin 7-rutinoside], the LC retention time is 6.39 min.

For `O=c1c(O)c(-c2ccc(OC3OC(CO)C(O)C(O)C3O)c(O)c2)oc2cc(O)cc(O)c12` (centres undefined) [quercetin 4'-glucoside], the LC retention time is 6.25 min.

`CC1OC(OCC2OC(Oc3c(-c4ccc(O)c(O)c4)oc4cc(O)cc(O)c4c3=O)C(O)C(O)C2O)C(O)C(O)C1O` (centres undefined) [quercetin 3-rutinoside]: the LC retention time was 5.07 min.

Consider `CC(C)C1=CC2=CCC3C(C)(C(=O)O)CCCC3(C)C2CC1` (centres undefined) [abietic acid], for which the LC retention time is 19.3 min.

Take `O=c1c(O)c(-c2ccc(O)c(O)c2)oc2cc(O)cc(O)c12` [quercetin]: the LC retention time is 7.8 min.

As to `O=C(C=Cc1ccc(O)cc1)OC1CC(O)(C(=O)O)CC(O)C1O` (centres undefined) [p-coumarlyquinnic acid], the LC retention time was 4.21 min.

With `COc1cc(-c2[o+]c3cc(O)cc(O)c3cc2OC2OC(CO)C(O)C(O)C2O)cc(OC)c1O` (centres undefined) [malvidin 3-glucoside], the LC retention time is 3.86 min.

`CC1CCC2C(C)C3C(CC4C5CC=C6CC(OC7OC(CO)C(OC8OC(C)C(O)C(O)C8O)C(O)C7OC7OC(C)C(O)C(O)C7O)CCC6(C)C5CCC43C)N2C1` (stereo not drawn) [alpha-chaconine]: the LC retention time is 7.97 min.

As for `COc1cc(-c2oc3cc(O)cc(O)c3c(=O)c2O)ccc1O` [isorhamnetin], the LC retention time was 9.25 min.

Regarding `O=C(O)c1cc(O)c(O)c(O)c1` [gallic acid], the LC retention time is 1.6 min.

On to `CC1OC(Oc2c(-c3ccc(O)c(O)c3)oc3cc(O)cc(O)c3c2=O)C(O)C(O)C1O` (centres undefined) [quercetin 3-rhamnoside], for which the LC retention time is 6.02 min.

As for `COc1ccc(C2CC(=O)c3c(O)cc(OC4OC(CO)C(O)C(O)C4OC4OC(C)C(O)C(O)C4O)cc3O2)cc1O` (centres undefined) [hesperetin 7-O-neohesperidoside], the LC retention time is 6.61 min.

Take `CC1CCC2C(C)C3C(CC4C5CC=C6CC(OC7OC(CO)C(O)C(OC8OC(CO)C(O)C(O)C8O)C7OC7OC(C)C(O)C(O)C7O)CCC6(C)C5CCC43C)N2C1` (stereo not drawn) [alpha-solanine]: the LC retention time is 7.91 min.

Consider `CC1CCC2(C(=O)O)CCC3(C)C(=CCC4C5(C)CCC(O)C(C)(C)C5CCC43C)C2C1C` (centres undefined) [ursolic acid], for which the LC retention time was 19.2 min.

Consider `O=c1cc(-c2ccc(O)c(O)c2)oc2cc(O)cc(O)c12` [luteolin], for which the LC retention time is 7.75 min.

As to `COc1cc(CC2COC(c3ccc(O)c(OC)c3)C2CO)ccc1O` (centres undefined) [lariciresinol], the LC retention time is 7.24 min.

Regarding `O=C(O)/C=C/c1ccc(O)cc1` [p-coumaric acid], the LC retention time is 5.04 min.

Take `C=C(C)C1CCC2(C(=O)O)CCC3(C)C(CCC4C5(C)CCC(O)C(C)(C)C5CCC43C)C12` (centres undefined) [betulinic acid]: the LC retention time is 18.8 min.

`COc1ccc(C2CC(=O)c3c(O)cc(O)cc3O2)cc1O` (centres undefined) [hesperetin]: the LC retention time is 9.3 min.

Consider `CC1CCC2(NC1)OC1CC3C4CCC5CC(OC6OC(CO)C(OC7OC(CO)C(O)C(OC8OCC(O)C(O)C8O)C7OC7OC(CO)C(O)C(O)C7O)C(O)C6O)CCC5(C)C4CCC3(C)C1C2C` (centres undefined) [tomatin], for which the LC retention time is 7.55 min.
